Assays:
Assay in all cases: relative viability (nuclei count vs DMSO), 5 days (fraction); higher = more cells survive
NCI-H520 = tested on: NCI-H520
How it was run: (§1)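 Relative viability divides the nuclei count in treated wells by that in vehicle wells. Lung cancer cell lines were seeded in 1536-well plates, dosed by pin tool the next day, and fixed and stained after 5 days in one step with final 0.05% Triton X-100, 1% formaldehyde and 1 ug/ml Hoechst. Dosing was a single drug or a fixed anchor-drug dose plus five library-drug doses (not always all listed) in √10 steps, and values are medians of duplicate plates imaged at 4×.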

NCI-H2126 = tested on: NCI-H2126
How it was run: as §1

NCI-H647 = tested on: NCI-H647
How it was run: as §1

LCLC-97TM1 = tested on: LCLC-97TM1
How it was run: as §1

RERF-LC-KJ = tested on: RERF-LC-KJ
How it was run: as §1

H3255 = tested on: H3255
How it was run: as §1

LC-2-ad = tested on: LC-2-ad
How it was run: as §1

NCI-H2087 = tested on: NCI-H2087
How it was run: as §1

NCI-H2347 = tested on: NCI-H2347
How it was run: as §1

EPLC-272H = tested on: EPLC-272H
How it was run: as §1

PC-14 = tested on: PC-14
How it was run: as §1

201T = tested on: 201T
How it was run: as §1

NCI-H650 = tested on: NCI-H650
How it was run: as §1

NCI-H1915 = tested on: NCI-H1915
How it was run: as §1

COR-L 105 = tested on: COR-L 105
How it was run: as §1

HCC-827 = tested on: HCC-827
How it was run: as §1

HCC-78 = tested on: HCC-78
How it was run: as §1

NCI-H2405 = tested on: NCI-H2405
How it was run: as §1

ChaGo-K-1 = tested on: ChaGo-K-1
How it was run: as §1

NCI-H661 = tested on: NCI-H661
How it was run: as §1

NCI-H1666 = tested on: NCI-H1666
How it was run: as §1

NCI-H23 = tested on: NCI-H23
How it was run: as §1

Compound: COc1cc2nccc(Oc3ccc(NC(=O)Nc4cc(C)on4)c(Cl)c3)c2cc1OC [Tivozanib] + Cc1cc(Nc2cc(N3CCN(C)CC3)nc(Sc3ccc(NC(=O)C4CC4)cc3)n2)n[nH]1 [Tozasertib] (partner 0.1 µM)
- relative viability (NCI-H520; first compound 0.005 µM): 0.402
- relative viability (NCI-H520; first compound 0.01581 µM): 0.373
- relative viability (NCI-H520; first compound 0.05 µM): 0.446
- relative viability (NCI-H520; first compound 0.1581 µM): 0.444
- relative viability (NCI-H520; first compound 0.5 µM): 0.433
- relative viability (NCI-H2126; first compound 0.005 µM): 0.804
- relative viability (NCI-H2126; first compound 0.01581 µM): 0.846
- relative viability (NCI-H2126; first compound 0.05 µM): 0.915
- relative viability (NCI-H2126; first compound 0.1581 µM): 0.667
- relative viability (NCI-H2126; first compound 0.5 µM): 0.857
- relative viability (NCI-H647; first compound 0.005 µM): 0.269
- relative viability (NCI-H647; first compound 0.01581 µM): 0.203
- relative viability (NCI-H647; first compound 0.05 µM): 0.263
- relative viability (NCI-H647; first compound 0.1581 µM): 0.332
- relative viability (NCI-H647; first compound 0.5 µM): 0.302
- relative viability (LCLC-97TM1; first compound 0.005 µM): 0.236
- relative viability (LCLC-97TM1; first compound 0.01581 µM): 0.168
- relative viability (LCLC-97TM1; first compound 0.05 µM): 0.274
- relative viability (LCLC-97TM1; first compound 0.1581 µM): 0.357
- relative viability (LCLC-97TM1; first compound 0.5 µM): 0.197
- relative viability (RERF-LC-KJ; first compound 0.005 µM): 0.477
- relative viability (RERF-LC-KJ; first compound 0.01581 µM): 0.482
- relative viability (RERF-LC-KJ; first compound 0.05 µM): 0.533
- relative viability (RERF-LC-KJ; first compound 0.1581 µM): 0.534
- relative viability (RERF-LC-KJ; first compound 0.5 µM): 0.496
- relative viability (H3255; first compound 0.005 µM): 0.745
- relative viability (H3255; first compound 0.01581 µM): 0.564
- relative viability (H3255; first compound 0.05 µM): 0.626
- relative viability (H3255; first compound 0.1581 µM): 0.804
- relative viability (H3255; first compound 0.5 µM): 0.565
- relative viability (LC-2-ad; first compound 0.005 µM): 0.408
- relative viability (LC-2-ad; first compound 0.01581 µM): 0.486
- relative viability (LC-2-ad; first compound 0.05 µM): 0.484
- relative viability (LC-2-ad; first compound 0.1581 µM): 0.399
- relative viability (LC-2-ad; first compound 0.5 µM): 0.408
- relative viability (NCI-H2087; first compound 0.005 µM): 0.22
- relative viability (NCI-H2087; first compound 0.01581 µM): 0.316
- relative viability (NCI-H2087; first compound 0.05 µM): 0.261
- relative viability (NCI-H2087; first compound 0.1581 µM): 0.338
- relative viability (NCI-H2087; first compound 0.5 µM): 0.303
- relative viability (NCI-H2347; first compound 0.01581 µM): 0.54
- relative viability (NCI-H2347; first compound 0.05 µM): 0.594
- relative viability (NCI-H2347; first compound 0.5 µM): 0.511
- relative viability (EPLC-272H; first compound 0.005 µM): 0.195
- relative viability (EPLC-272H; first compound 0.01581 µM): 0.255
- relative viability (EPLC-272H; first compound 0.05 µM): 0.387
- relative viability (EPLC-272H; first compound 0.1581 µM): 0.224
- relative viability (EPLC-272H; first compound 0.5 µM): 0.275
- relative viability (PC-14; first compound 0.005 µM): 0.566
- relative viability (PC-14; first compound 0.01581 µM): 0.647
- relative viability (PC-14; first compound 0.05 µM): 0.55
- relative viability (PC-14; first compound 0.1581 µM): 0.615
- relative viability (PC-14; first compound 0.5 µM): 0.507
- relative viability (201T; first compound 0.005 µM): 0.974
- relative viability (201T; first compound 0.01581 µM): 0.959
- relative viability (201T; first compound 0.05 µM): 0.981
- relative viability (201T; first compound 0.1581 µM): 0.985
- relative viability (201T; first compound 0.5 µM): 0.996
- relative viability (NCI-H650; first compound 0.005 µM): 0.763
- relative viability (NCI-H650; first compound 0.01581 µM): 0.743
- relative viability (NCI-H650; first compound 0.05 µM): 0.743
- relative viability (NCI-H650; first compound 0.1581 µM): 0.732
- relative viability (NCI-H650; first compound 0.5 µM): 0.594
- relative viability (NCI-H1915; first compound 0.005 µM): 0.4
- relative viability (NCI-H1915; first compound 0.01581 µM): 0.439
- relative viability (NCI-H1915; first compound 0.05 µM): 0.413
- relative viability (NCI-H1915; first compound 0.1581 µM): 0.511
- relative viability (NCI-H1915; first compound 0.5 µM): 0.5
- relative viability (COR-L 105; first compound 0.005 µM): 0.366
- relative viability (COR-L 105; first compound 0.01581 µM): 0.371
- relative viability (COR-L 105; first compound 0.05 µM): 0.406
- relative viability (COR-L 105; first compound 0.1581 µM): 0.374
- relative viability (COR-L 105; first compound 0.5 µM): 0.493
- relative viability (HCC-827; first compound 0.005 µM): 0.429
- relative viability (HCC-827; first compound 0.01581 µM): 0.421
- relative viability (HCC-827; first compound 0.05 µM): 0.417
- relative viability (HCC-827; first compound 0.1581 µM): 0.408
- relative viability (HCC-827; first compound 0.5 µM): 0.455
- relative viability (HCC-78; first compound 0.005 µM): 0.324
- relative viability (HCC-78; first compound 0.01581 µM): 0.472
- relative viability (HCC-78; first compound 0.05 µM): 0.347
- relative viability (HCC-78; first compound 0.1581 µM): 0.501
- relative viability (HCC-78; first compound 0.5 µM): 0.328
- relative viability (NCI-H2405; first compound 0.005 µM): 0.676
- relative viability (NCI-H2405; first compound 0.01581 µM): 0.753
- relative viability (NCI-H2405; first compound 0.05 µM): 0.841
- relative viability (NCI-H2405; first compound 0.1581 µM): 0.879
- relative viability (NCI-H2405; first compound 0.5 µM): 0.711
- relative viability (ChaGo-K-1; first compound 0.005 µM): 0.226
- relative viability (ChaGo-K-1; first compound 0.01581 µM): 0.247
- relative viability (ChaGo-K-1; first compound 0.05 µM): 0.216
- relative viability (ChaGo-K-1; first compound 0.1581 µM): 0.256
- relative viability (ChaGo-K-1; first compound 0.5 µM): 0.186
- relative viability (NCI-H661; first compound 0.005 µM): 0.37
- relative viability (NCI-H661; first compound 0.01581 µM): 0.362
- relative viability (NCI-H661; first compound 0.05 µM): 0.359
- relative viability (NCI-H661; first compound 0.1581 µM): 0.363
- relative viability (NCI-H661; first compound 0.5 µM): 0.363
- relative viability (NCI-H1666; first compound 0.005 µM): 0.538
- relative viability (NCI-H1666; first compound 0.01581 µM): 0.605
- relative viability (NCI-H1666; first compound 0.05 µM): 0.668
- relative viability (NCI-H1666; first compound 0.1581 µM): 0.628
- relative viability (NCI-H1666; first compound 0.5 µM): 0.646
- relative viability (NCI-H23; first compound 0.005 µM): 0.324
- relative viability (NCI-H23; first compound 0.01581 µM): 0.323
- relative viability (NCI-H23; first compound 0.05 µM): 0.547
- relative viability (NCI-H23; first compound 0.1581 µM): 0.406
- relative viability (NCI-H23; first compound 0.5 µM): 0.427

Reference: the supplement of paper PMC10307832
